According to US11912755B2, “Endostatin fragments and variants for use in treating fibrosis” (iBio, Inc., priority 2015, dated 2024):

What was measured:
human skin explants = assay: Ex vivo human skin assay, dermal thickness; assay type: cell-based
Description: Ex vivo human skin assays. Human abdominal skin was obtained from corrective plastic surgery. As previously described (Yasuoka et al., The Open Rheumatol J 2008; 2:17-22), subcutaneous fat tissue was removed uniformly and skin tissue was cut into 1.5 cm×1.5 cm sections. The following were injected intradermally in a total volume of 100 μl 1×PBS: rE alone (1-10 μg/ml), endostatin peptides alone (10 μg/ml), rE or endostatin peptides (1-20 μg/ml) in combination with TGF-β (10 ng/ml), and TGF-β alone (10 ng/ml). In some experiments, human skin was first injected with TGF-β for 48 h followed by recombinant endostatin (rE) administration in the same injection site as TGF-β. Explants containing complete epidermal and dermal layers were cultured in an air liquid interface with the epidermal and keratin layers side up and exposed to air. The culture medium was replaced every other day. After 1 or 2 weeks, skin tissue corresponding to an area with 8-mm diameter centered around the injection site was harvested using disposable 8-mm ACUPUNCH® (Acuderm, Inc., Lauderdale, FL). Skin tissue was fixed in 10% formalin prior to embedding in paraffin.
(§1) Measurement of Skin Dermal Thickness. Six μm sections of paraffin-embedded human and mouse skin tissues were stained with hematoxylin and eosin (H&E). In some experiments, sections were stained with Masson trichrome which identifies collagens. Images were taken on a Nikon Eclipse 800 microscope. The thickness of the dermis was measured in 6 random fields of each section using the image/J® software. Data are shown in arbitrary units.

[1] = test system: TGF-β-induced dermal fibrosis in mouse skin; assay: In vivo TGF-β-induced dermal fibrosis in mouse skin; conditions: 10 μg/ml intradermal with TGF-β 10 ng/ml; one week
Description: In Vivo Mouse Experiments. CB57BL6/J male mice were purchased from The Jackson Laboratory (Bar Harbor, ME). Human rE (10 μg/ml) or Endostatin peptides (10 μg/ml) in combination with TGF-β (10 ng/ml), or TGF-β alone were injected intradermally on the back of mice in a total volume of 100 μl 1×PBS. Mice were injected in two different skin sites and sacrificed one week post-injection. Skin surrounding the injection site was harvested and fixed in 10% formalin prior to embedding in paraffin.
as §1
E4, a peptide representing the carboxy terminus of human endostatin, can attenuate fibrosis triggered by multiple fibrogenic factors. The anti-fibrotic effects of E4 can be detected whether administered concomitantly with or following the fibrogenic trigger. The efficacy of E4 was confirmed in […] pre-clinical models of fibrosis: a) bleomycin-induced dermal fibrosis in vivo in mouse skin, b) TGF-β induced dermal fibrosis in mouse skin, and c) bleomycin-induced pulmonary fibrosis. E4 peptide or a control peptide (E1; representing the amino terminal region of endostatin) were administered at the same time as TGF-β or bleomycin or 3-4 days following TGF-β or bleomycin. Mice were sacrificed one and two weeks after TGF-β-initiation of dermal fibrosis, and two and three weeks after bleomycin-induced pulmonary fibrosis. Two different modes of administration of the E4 peptide were also tested. It was confirmed that intraperitoneal and intratracheal administration was effective. The amount of E4 that was administered was 10 μg/ml in a total volume of 100 μl for skin and IP injections and 50 μl for IT administration.
For these studies, fibrosis was assessed by measurement of dermal thickness on H&E skin sections (skin), assessment of collagen levels by Masson Trichrome staining (skin and lung), and measurement of collagen levels by Sircol assay (lung). Furthermore, to confirm the mechanism by which E4 exerts its anti-fibrotic effects, the production of extra-cellular matrix (ECM) components, the levels of enzymes that promote matrix stabilization and thus accumulation and levels of those that degrade ECM components, and levels of transcription factors downstream of the pro-fibrotic triggers were evaluated. Results were assessed using the unpaired t test and the 3-way ANOVA (for the ID1 data).

[2] = test system: TGF-β-induced dermal fibrosis in mouse skin; conditions: single dose concurrently with TGF-β; cited from earlier work
[3] = test system: human primary lung fibroblasts; conditions: adenovirally-expressed endostatin; fibroblasts pretreated with TGF-β; cited from earlier work
[4] = test system: patients with advanced solid tumors; conditions: daily 1-hour intravenous infusion at doses up to 300 mg/m2; cited from earlier work
rabbit ear scar model = conditions: in vivo; cited from earlier work
IPF model = conditions: rat, in vivo; cited from earlier work
liver fibrosis model = conditions: mouse, in vivo; cited from earlier work
[5] = test system: diabetes/renal fibrosis model; conditions: rat, in vivo; cited from earlier work

| Substance | dermal thickness, baseline effect (human skin explants; injected alone, no TGF-β, rE 1, 5, 10 μg/ml, peptides 10 μg/ml) | development of fibrosis as measured by dermal thickness (human skin explants; peptides 10 μg/ml with 10 ng/ml TGF-β, vs TGF-β alone) | TGF-β-induced dermal fibrosis (dermal thickness) [1] | skin thickness [2] | FN and Col1α1 protein levels [3] | tolerability [4] | injury parameters (rabbit ear scar model) | injury parameters (IPF model) | injury parameters (liver fibrosis model) | injury parameters [5] |
| --- | --- | --- | --- | --- | --- | --- | --- | --- | --- | --- |
| E3: synthetic peptide, SEQ ID NO: 20, amino acids 133-180 of human endostatin (SYCETWRTEAPSATGQASSLLGGRLLGQSAASCHHAYIVLCIENSFMT; E3 amino acid sequence) | tendency towards reduction | significantly abolished | prevented | significantly decreased skin | – | – | – | – | – | – |
| Endostatin | – | – | – | – | endostatin markedly reduced | well tolerated | reversed injury parameters | reversed injury parameters | reversed injury parameters | reversed injury parameters |
